Activity calls are given as the source filed them.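 How the source made its calls: active means compounds giving half or more protection of infected cells from virus-caused growth loss, again on retest; inactive means the rest.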 Where a SMILES comes first, the peptide text is derived from it. The star is where a group is joined. Boc = CC(C)(C)OC(=O)*; OBn = c1ccc(CO*)cc1
System: CEM cells HIV-1 protection, formazan growth assay
Experiment: NCI AIDS Antiviral Assay
Conditions: for IC50: measured here: growth of uninfected CEM cells
In short: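 Category rules: moderately active means at least 50% protection on retest, and confirmed active means 100% protection reproducibly. The underlying data came from a formazan growth assay in HIV-1-infected CEM cells.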

Structure (SMILES) | EC50 [µM] | IC50 [µM] | outcome
CCOC(=O)COC(=O)c1cc(C(=CCC[C@H]2CC[C@@]3(C)[C@@H](CC[C@@H]4[C@@H]3CC[C@]3(C)[C@@H](C(C)CCCC(C)C)CC[C@@H]43)C2)c2cc(Cl)c(OCC(=O)OCC)c(C(=O)OCC(=O)OCC)c2)cc(Cl)c1OCC(=O)OCC (stereo partly drawn) | > 200 | > 200 | 
Oc1cnc2c(O)cccc2c1 | > 200 | 17.8 | 
CC(=O)Nc1c(C#N)c2n(c1C(=O)Nc1ccc(C)cc1)CCC2 | > 100 | > 100 | 
O=S(=O)(O)c1cccc(N=Nc2ccc(N=Nc3ccc(Nc4ccccc4)c4c(S(=O)(=O)O)cccc34)c3ccccc23)c1 | 155 | > 200 | 
C=C1CC[C@@H](Br)C(C)(C)[C@]12CCC(C)(O)C(Cl)C2 (stereo partly drawn) | > 77.6 | > 77.6 | 
O=C(CC(=O)Nc1ccccc1)NNC(c1cc(N=Nc2ccc(Br)cc2)ccc1O)P(O)O (stereo not drawn) | > 100 | 3.98 | 
O=C1C2C(C(=O)N1O)N(Cc1ccccc1)C(=O)N2Cc1ccccc1 (stereo not drawn) | > 708 | > 708 | 
Nc1cc(N2CCOCC2)nc(=O)n1-c1ccccc1 | > 200 | > 200 | 
O=C(Cc1nc2ccccc2c(=O)n1-c1c(Cl)cccc1Cl)c1ccncc1 | > 12.6 | > 12.6 | 
CC1(C)C(C(=O)O)C1C(=O)O (stereo not drawn) | > 200 | > 200 | 
CC(=O)Oc1c2c(cc3c1C(=O)NC1C3=CC(O)[C@@H](OC(C)=O)[C@H]1OC(C)=O)OCO2 (stereo partly drawn) |  |  | inactive
N#C/C(=C\c1ccccc1Cl)c1ccccc1 | > 200 | 72.4 | 
Cc1ccc(O)c(N=Nc2ccc(S(=O)(=O)O)cc2)n1 |  |  | inactive
O=S1(=O)C(c2ccc(F)cc2)=C(O)c2cc3ccccc3nc21 |  |  | inactive
CC(=O)Nc1ccc(S(=O)(=O)[N-]C2C(=O)c3ccccc3C(=O)C2[n+]2ccccc2)cc1 (stereo not drawn) | > 200 | 37.2 | 
[N-]=[N+]=Nc1c(C=O)c(=O)n(-c2ccccc2)c2ccccc12 | > 200 | 21.9 | 
Cc1cc(S(=O)(=O)Nc2nc(N)nc(N3N=CCC3C)n2)c(S)cc1Cl (stereo not drawn) | 55 | > 200 | 
CN(/N=C(\C(=O)O)c1ccccc1)C1=NCCN1 | > 200 | > 200 | 
COc1ccc(Cc2nnc(C)c3c(C)[nH]nc23)cc1 | > 525 | 33.9 | 
C=CC(C)(C)C12CC3C(=O)N/C(=C\c4cnc[nH]4)C(=O)N3C1Nc1ccccc12 (stereo not drawn) | > 200 | 91.2 | 
CCOC(=O)/C(C#N)=C/c1ccc(F)cc1 | > 162 | > 162 | 
Cn1c(=O)cc(CC(=O)O)c2ccccc21 | > 200 | > 200 | 

Structure (SMILES) | EC50 [µM] | IC50 [µM] | outcome
Fc1ccc(C2NC(c3ccc(Cl)cc3)c3cccn3-c3sccc32)cc1 (stereo not drawn) | > 100 | 79.4 | 
NC(=O)c1ccccc1NC(=O)C(=O)C(C(=O)c1ccc2ccccc2c1)C1OC(=O)c2ccccc21 (stereo not drawn) | > 52.5 | 15.8 | 
Cc1nc(N)nc(N)c1CCCc1ccccc1 |  |  | inactive
Nc1ccn(C2CCC(CO)O2)c(=S)n1 (stereo not drawn) | > 200 | > 200 | 
NS(=O)(=O)c1ccc(C(=O)O)cc1 | > 200 | > 200 | 
CC1(C)N=C(C(N)=O)c2ncn(-c3ccccc3)c2N1 | > 200 | > 200 | 
COc1cc2c(cc1O)CC13CCC(=O)N1CCc1cc(OC)c(O)c-2c13 (stereo not drawn) |  |  | inactive
N#CC1C(=O)SC2c3ccccc3C(=O)c3ccccc3C12 (stereo not drawn) | > 200 | 132 | 
C/C(=N\N(C)C)c1sc(-n2nc(-c3ccccc3)cc2-c2ccccc2)nc1C | > 46.8 | > 46.8 | 
[N-]=[N+]=N/C1=C/CCCCC(=O)C1 |  |  | inactive
COc1ccc(-c2c(C#N)c(-c3ccc(C)cc3)n(NS(=O)(=O)c3ccc(C)cc3)c(=O)c2C#N)cc1 | > 200 | 17.4 | 
COC(=O)c1cc(Br)c(C(=O)C(Cl)(Cl)Cl)[nH]1 | > 200 | > 200 | 
COc1ccc(/C=C2/N=C(N/N=C\C(O)C(O)C(O)CO)NC2=O)cc1 (stereo not drawn) | > 200 | 79.4 | inactive
COc1cc(C2c3cc4c(cc3OC(N3CCCC3)C2C)OCO4)cc(OC)c1O (stereo not drawn) | > 200 | 6.03 | 
O=C1C(=O)c2ccccc2C(O)=C1C(C1=C(O)c2ccccc2C(=O)C1=O)c1ccc(Cl)cc1 | > 200 | 37.2 | 
Cc1nc(N)c(N2CCN(C#N)CC2)c(=O)[nH]1 | > 200 | > 200 | 
CC(=O)c1ccc(NC(=O)/C(CC(=O)c2sc(-c3cccnc3)nc2C)=N/NC(N)=O)cc1 | > 21.4 | > 21.4 | 
O=C1c2ccccc2-c2nccc3c2c1nc1ccccc13 | > 200 | 8.32 | 
CC(=O)Nc1ccc(/C=C2\C=Cc3ccccc32)cc1 | > 20 | 13.2 | 
COc1ccc(NC(=S)c2ccoc2C)cc1CC(=O)OC(C)C | 0.174 | 1.51 | 
C=C1C[C@@H]2O[C@H]3[C@H]4[C@@H](C[C@@H](C)[C@@H](OC(C)=O)[C@H]42)[C@@H](C)CO[C@@]3(C)[C@H](OC(=O)CCCCCCC)CC1=O | > 200 | 10 | 
Cc1ccc([N+](=O)[O-])cc1NC(=O)C(=O)C1CCC2=C(Sc3ccccc3N2)C1=O (stereo not drawn) | > 117 | > 117 | 

Structure (SMILES) | EC50 [µM] | IC50 [µM] | outcome
CC(C)CC(NC(=O)OC(C)(C)C)C(=O)NC(CC(=O)OCc1ccccc1)C(=O)OCc1ccccc1 (stereo not drawn) (Boc-Leu-Asp(OBn)-OBn; configuration not given here) | > 200 | 33.1 | 
COc1ccc(-c2[nH]c(-c3ccc(OC)cc3)c(-c3ccccn3)c2-c2ccccn2)cc1 | > 200 | 24.5 | 
O=C1C=CC=C/C1=C1/SC(c2ccccc2)=C(O)N1c1ccccc1 |  |  | inactive
N#Cc1c(C#N)c(-c2ccco2)n(/N=C/c2ccco2)c1N | > 200 | > 200 | 
CC(C)C(=O)/C=C/c1ccccc1 | > 200 | 57.5 | 
Cc1ccc2c(c1)P(=O)(O)c1cc(C)ccc1S2(=O)=O | > 200 | > 200 | 
NS(=O)(=O)c1ccc(CNC(=O)c2ccccc2SC(=O)Oc2ccc([N+](=O)[O-])cc2)cc1 | 1.17 | 36.3 | 
CCOC(=O)C(Cc1ccccc1[N+](=O)[O-])C(=O)OCC | > 200 | 102 | 
O=C1CCC(c2ccccc2)CCN1 (stereo not drawn) |  |  | inactive
CCCCc1ccc(-n2c3nc(=O)n(C)c(=O)c-3nc3ccccc32)cc1 |  |  | inactive
CCN(CC)CCOC(=O)OCCCCOC(=O)OCCN(CC)CC | > 200 | > 200 | 
COC(=O)c1c[nH]c2c1-c1cc(C(=O)OCc3ccccc3)n(S(=O)(=O)c3ccc(C)cc3)c1C(=O)C2=O | > 200 | 3.72 | 
Cc1ccc(SC/C(=C\CS(=O)(=O)c2ccc(C)cc2)S(=O)(=O)c2ccc(Br)cc2)cc1 |  |  | inactive
COc1ccc(/C(=N/O)c2ccccc2-c2nc3ccccc3c(=O)n2-c2ccc(S(=O)(=O)Nc3ncccn3)cc2)cc1C | > 200 | 49 | 
Cc1ccc(S(=O)(=O)N/N=C(\c2nc3ccc(Cl)cc3[nH]c2=O)C(O)c2ccco2)cc1 (stereo not drawn) | > 275 | 17 | 
CNc1ccc(Cl)cc1S(=O)(=O)c1ccc(OC)cc1 | > 200 | 2.14 | 
O=c1cn[nH]c2c(F)cccc12 | > 646 | 617 | 
COc1cc2c(cc1OC)C(Cc1cc(Br)c(OC)c(OC)c1)=[N+](C)CC2 | > 447 | 33.9 | 
CC(=O)NC(CCCNC(=O)OCc1ccccc1)C(=O)NCc1ccccc1 (stereo not drawn) | > 170 | > 170 | 
O=C(/C=C/c1cccnc1)c1ccccc1 | > 123 | 7.59 | 
O=C(CC1C(=O)Nc2ccccc2S1(=O)=O)Nc1cccc(Cl)c1 (stereo not drawn) | > 27.5 | > 27.5 | 
CSCCC(NC(c1ccccc1)c1ccccc1)[P+](=O)O (stereo not drawn) | > 200 | > 200 | 

Structure (SMILES) | EC50 [µM] | IC50 [µM] | outcome
C=CCNC(=S)/N=C\c1c(C)[nH]n(-c2ccccc2)c1=O | > 100 | 95.5 | 
COc1ccc2c(O)c(S(=O)(=O)c3ccc(C)cc3)c(=O)oc2c1OC | > 100 | > 100 | 
CC(=O)Nc1ccccc1/C=C\c1ccccn1 | > 1050 | > 1050 | 
COc1ccc2c3c([nH]c2c1[N+](=O)[O-])C(C)N(Cc1ccc([N+](=O)[O-])cc1)CC3 (stereo not drawn) |  |  | inactive
CCOC(=O)C(NC(=O)c1[nH]cnc1/N=N/N(C)C)C(C)C (stereo not drawn) | > 23.4 | > 23.4 | 
FC(F)(F)C1(c2ccccc2)SCc2nc3ccccc3n21 (stereo not drawn) | 77.6 | 105 | 
C=C[C@@H](C)[C@@H](O[Si](C)(C)C(C)(C)C)c1c(O)c2c(c3c(CCC)cc(=O)oc13)OC(C)(C)C=C2 | > 200 | 105 | 
O=C(O)c1c(-c2cccc3ccccc23)sc(-c2cccc3ccccc23)c1C(=O)O |  |  | inactive
CN(C)C(=S)/N=c1\ssc(=S)n1C |  |  | inactive
O=C(O)c1cc(S(=O)(=O)O)c2cccnc2c1O | > 200 | > 200 | 
C/C(=N/O)C1CC=C(S(=O)(=O)c2ccccc2)C1 (stereo not drawn) |  |  | inactive
O=C(CC(C(=O)c1ccsc1)c1cccs1)c1cccs1 (stereo not drawn) | > 21.9 | > 21.9 | 
C[C@]1(CO)CCC[C@@]2(C)C1CC[C@H]1CC3C[C@]12CC[C@]3(C)O (stereo partly drawn) | > 23.4 | > 23.4 | 
COc1cc(N)c2c(c1)SCC(=O)N2 | > 200 | 148 | 
NCCC(O)C(=O)NC1CC(N)C(OC2OC(CN)C(O)C(O)C2O)C(O)C1OC1OC(CO)C(O)C(N)C1O (stereo not drawn) |  |  | inactive
O=[N+]([O-])c1ccc(Sc2c3ccccc3nc3ccccc23)cc1 | > 4.37 | > 4.37 | 
C=C1C2CCCC1C1(S(C)(=O)=O)CCCCC21O (stereo not drawn) |  |  | inactive
CC(C)(C)C1=CC(=C2C(=O)C(=O)c3ccccc3C2=O)C=C(C(C)(C)C)C1=O | > 6.92 | > 6.92 | 
COc1ccc(/C=N/NC(=O)c2sc(=S)n(-c3ccccc3)c2N)cc1 | > 9.77 | > 9.77 | 
CC(=O)CSc1sc(C(C)=O)c(N)c1C#N | > 200 | > 200 | 
N=C1C=C/[N+](=C\C=CCO)C([O-])=N1 |  |  | active
